According to the NIST ThermoML archive (doi:10.1016/j.jct.2010.10.021):
Values joined by “and” are separate entries in the source; they are usually repeats but may differ in a detail not shown here. Equal values may be shown once. Numbers after ± are expanded uncertainties.

Assay: xn = mol fraction of the nth substance listed
Details: 100 kPa, Liquid, Frequency=5 MHz, Single path-length method, x1 = 0.7

Row | SMILES | speed of sound (1243 K) [m/s] | speed of sound (1254 K) [m/s] | speed of sound (1260 K) [m/s] | speed of sound (1261 K) | speed of sound (1271 K) [m/s] | speed of sound (1278 K) [m/s]
1 | [F-].[Li+] [lithium fluoride] + [Br-].[K+] | 1408 ± 28 | 1394 ± 28 | 1385 ± 28 |  |  | 
2 | [F-].[Li+] [lithium fluoride] + [Cl-].[Cs+] |  |  |  | 1236 ± 25 m/s and 1235 ± 25 m/s | 1226 ± 25 | 1220 ± 24
